Experimental data as given in paper PMC8846360, “Structural Optimization and Improving Antitumor Potential of Moreollic Acid from Gamboge” (Molecules, 2022).
Where two headings read alike, the source gives them in different places.

Columns and labels:
[1] = test system: human colon cancer cells (DLD1); assay: CCK-8 cell proliferation assay, DLD1; type: cell-based; conditions: read-out: IC50 ± SD DLD1
Procedure: (§1) To further assess the antitumor activities of synthesized compounds against human colon cancer cells, the effects of each synthesized compound on the viability of two additional human colon cancer cells (SW620, DLD1) were evaluated, and normal human colonic epithelial cells (NCM460) were used as a control. It is obvious that all the synthesized compounds display potential antitumor activities against HCT116, DLD1, and SW620 cells. […] In addition, for SW620, the activities of most optimized compounds were slightly stronger than that of 5-Fu.
(§2) HCT116, SW620, and DLD1 were purchased from American Type Culture Collection (ATCC). SW620 and DLD1 were cultured in Dulbecco’s Modified Eagles medium (Thermo), and HCT116 was cultured in McCoy’s 5A medium (Thermo). All media were supplemented with 10% fetal bovine serum (Thermo) and 1% penicillin/streptomycin. All the cells were passaged at approximately 80% confluency. Cells were tested for mycoplasma every two months, and only mycoplasma-negative cells were used
(§3) To investigate the effects of compounds on tumor cells’ proliferation, the cell proliferation assay was performed using the Cell Counting Kit-8 (#40203ES60, Yeasen, Shanghai, China). In brief, cells were seeded in a 96-well plate at 3 × 10^3 cells per well and cultured overnight. Then, the medium was replaced with fresh DMEM medium containing various concentrations of compounds or vehicle. After 48 h of incubation, the medium was exchanged with 100 μL of FBS-free DMEM medium supplemented with 10 μL of CCK8 added to each well and incubated at 37 °C for another 2 h. Absorbance at 450 nm was measured with a microplate reader (Thermo). The experiments were performed in triplicate. The mean ± SD values presented in the figures were calculated from three independent experiments. Comparisons between groups were evaluated using GraphPad Prism version 7.0 software. p < 0.05 was considered statistically significant.

[2] = test system: human breast cancer cells (MDA-MB-231); assay: CCK-8 cell proliferation assay, MDA-MB-231; type: cell-based; conditions: 48 h, read-out: Inhibition rates (%) MDA-MB-231
Procedure: (§4) Initially, the target compounds were evaluated for antiproliferative activities against human non-small-cell lung cancer cells (A549), human breast cancer cells (MDA-MB-231), human esophageal cancer cells (KYSE30), and human colon cancer cells (HCT-116) at 5 μM. All of them were tested by the CCK-8 assay using 5-Fu as the positive control.
as §3

[3] = test system: normal human colonic epithelial cells (NCM460); assay: CCK-8 cell proliferation assay, NCM460; type: cell-based; conditions: read-out: IC50 ± SD NCM460
Procedure: as §1, §3

[4] = test system: human colon cancer cells (SW620); assay: CCK-8 cell proliferation assay, SW620; type: cell-based; conditions: read-out: IC50 ± SD SW620
Procedure: as §1, §2, §3

[5] = test system: human non-small-cell lung cancer cells (A549); assay: CCK-8 cell proliferation assay, A549; type: cell-based; conditions: 48 h, read-out: Inhibition rates (%) A549
Procedure: as §4, §3

[6] = test system: human esophageal cancer cells (KYSE30); assay: CCK-8 cell proliferation assay, KYSE30; type: cell-based; conditions: KYSE-30, 48 h, read-out: Inhibition rates (%) KYSE30
Procedure: as §4, §3

[7] = test system: human colon cancer cells (HCT-116); assay: CCK-8 cell proliferation assay, HCT-116; type: cell-based; conditions: for inhibition at 5 µM: read-out: Inhibition rates (%) HCT-116; for IC50: read-out: IC50 ± SD HCT116
Procedure: as §4, §1, §2, §3

DLD1 cells = assay: Flow cytometric cell-cycle distribution, DLD1; type: cell-based, human; conditions: 6 h after nocodazole (400 ng/mL), flow cytometry
Procedure: (§5) Additionally, flow cytometric analyses were performed to determine cell-cycle distribution, where 400 ng/mL of nocodazole was used to synchronize cells in G2/M phase.
Figure 3 TH12-10 blocks S phase entry. (A) Immunoblot analysis of Cyclin D1, CDK4, CDK6, and p-Rb in SW620 and DLD1 cells treated with indicated concentrations of TH12-10 for 48 h. (B) Densitometry analysis of indicated proteins as described in (A) was performed using Image J software. […] (D) Quantitative analysis of DLD1 cells in G1 phase as described in (C). All data are presented as means ± SD of three independent experiments. * p < 0.05, ** p < 0.01, *** p < 0.001. N.S., not significant. Differences were tested using one-way ANOVA (B) or the unpaired t-test with Welch’s correction (D).

[8] = test system: CyclinD1, CDK6, CDK4, p-Rb in SW620 cells; assay: Immunoblot of cell-cycle regulatory proteins, SW620; type: cell-based, human; conditions: indicated concentrations, 48 h
Procedure: as §5
(§6) When 80% confluency was reached, cells were seeded into a 6-well plate at 3 × 10^6 cells per well and allowed to attach overnight. Then, the cells were treated with different concentrations of TH12-10 or vehicle for 48 h. Cells were lysed in RIPA buffer (#89900, Thermo, Waltham, MA, USA) supplemented with protease inhibitor cocktail (#B14002, Bimake, Houston, TX, USA) on ice for 30 min and centrifuged at 12,000 rpm for 10 min at 4 °C. Protein concentration was determined by the BCA kit and equal amounts of lysates were separated by SDS-polyacrylamide gels, and transferred to nitrocellulose membranes (#HATF00010, Millipore, Burlington, MA, USA). Then, the membranes were blocked with 5% milk in TBST for 1 h and probed with the indicated antibodies. […]
(§7) Figure 3 TH12-10 blocks S phase entry. […] (D) Quantitative analysis of DLD1 cells in G1 phase as described in (C). […]

[9] = test system: CyclinD1, CDK6, CDK4, p-Rb in NCM460 cells; assay: Immunoblot of cell-cycle regulatory proteins, NCM460; type: cell-based, human; conditions: indicated concentrations, 48 h
Procedure: as §5, §6
Figure 4 The contribution of TH12-10 to the cell cycle. […] (D) Quantitative analysis of NCM460 cells in G1 phase as described in (C). […]

[10] = test system: CyclinD1, CDK6, CDK4, p-Rb in DLD1 cells; assay: Immunoblot of cell-cycle regulatory proteins, DLD1; type: cell-based, human; conditions: indicated concentrations, 48 h
Procedure: as §5, §6, §7

[11] = NCM460, CCK-8, 48 h, normal colonic epithelial cells

IC50 ([1]; DLD-1, CCK-8, 48 h) [µM] | IC50 ([4]; SW-620, CCK-8, 48 h) [µM] | IC50 ([7]; HCT-116, CCK-8, 48 h) [µM] | SMILES | inhibition at 5 µM [2] [%] | IC50 [3, 11] [µM] | inhibition at 5 µM [5] [%] | inhibition at 5 µM [6] [%] | inhibition at 5 µM ([7]; HCT-116, 5 μM, CCK-8, 48 h) [%] | IC50 ([1]; DLD-1, 48 h) [µM] | IC50 ([3]; NCM460, 48 h) [µM] | IC50 ([4]; SW-620, 48 h) [µM] | IC50 ([7]; HCT-116, 48 h) [µM] | inhibition at 5 µM ([7]; HCT-116, 48 h) [%] | percentage of cells in the G1 phase vs blank control (DLD1 cells) | expression of CyclinD1, CDK6, CDK4 and p-Rb [8] | expression of CyclinD1, CDK6, CDK4 and p-Rb [9] | expression of CyclinD1, CDK6, CDK4 and p-Rb [10]
7.89 ± 0.75 | 2.68 ± 0.01 | 0.62 ± 0.02 | O=c1[nH]cc(F)c(=O)[nH]1 [5-Fu, 5-fluorouracil, reference compound] | 26.6 ± 2.51 | 13.6 ± 0.59 | 21.1 ± 1.79 | 28 ± 2.27 | 74.5 ± 1.1 | – | – | – | – | – | – | – | – | –
– | – | – | COC1C2CC3C(C)(C)OC(CC=C(C)C(=O)O)(C2=O)C32Oc3c(CC=C(C)C)c4c(c(O)c3C(=O)C12)C=CC(C)(C)O4 (stereo not drawn) [TH12-1, Moreollic acid] | -4.9 ± 0.04 | – | 18.38 ± 0.02 | 20.76 ± 0.04 | – | 1.44 ± 0.29 | 3.16 ± 0.32 | 1.49 ± 0.37 | 1.71 ± 0.33 | 83.9 ± 1.1 | – | – | – | –
1.39 ± 0.19 | 1.15 ± 0.13 | 1.19 ± 0.25 | COC1C2CC3C(C)(C)OC(CC=C(C)C(=O)N4CCCCC4)(C2=O)C32Oc3c(CC=C(C)C)c4c(c(O)c3C(=O)C12)C=CC(C)(C)O4 (stereo not drawn) [TH12-2] | 0.14 ± 3.51 | 4.73 ± 0.04 | 2.51 ± 4.32 | 9.08 ± 2.44 | 86.1 ± 2.83 | – | – | – | – | – | – | – | – | –
2.31 ± 0.23 | 1.82 ± 0.33 | 1.96 ± 0.2 | COC1C2CC3C(C)(C)OC(CC=C(C)C(=O)N4CCOCC4)(C2=O)C32Oc3c(CC=C(C)C)c4c(c(O)c3C(=O)C12)C=CC(C)(C)O4 (stereo not drawn) [TH12-3] | 1.71 ± 1.66 | 4.72 ± 0.03 | 11.6 ± 4.25 | 10.6 ± 2.66 | 87.4 ± 2.49 | – | – | – | – | – | – | – | – | –
7.89 ± 0.12 | 7.26 ± 0.87 | 7.62 ± 0.93 | COC1C2CC3C(C)(C)OC(CC=C(C)C(=O)N4CCSCC4)(C2=O)C32Oc3c(CC=C(C)C)c4c(c(O)c3C(=O)C12)C=CC(C)(C)O4 (stereo not drawn) [TH12-4] | 3.13 ± 1.16 | 19.9 ± 0.84 | 11.1 ± 5.41 | 6.98 ± 1.99 | 16.3 ± 4.56 | – | – | – | – | – | – | – | – | –
– | – | – | COC1C2CC3C(C)(C)OC(CC=C(C)C(=O)N4CCC(C)CC4)(C2=O)C32Oc3c(CC=C(C)C)c4c(c(O)c3C(=O)C12)C=CC(C)(C)O4 (stereo not drawn) [TH12-5] | 0.69 ± 1.92 | – | 14.3 ± 2.84 | 5.65 ± 3.77 | – | 2.49 ± 0.56 | 5.11 ± 0.21 | 1.97 ± 0.34 | 2.37 ± 0.63 | 85.5 ± 1.45 | – | – | – | –
1.45 ± 0.25 | 1.31 ± 0.24 | 1.52 ± 0.14 | COC1C2CC3C(C)(C)OC(CC=C(C)C(=O)N4CCC(c5ccccc5)CC4)(C2=O)C32Oc3c(CC=C(C)C)c4c(c(O)c3C(=O)C12)C=CC(C)(C)O4 (stereo not drawn) [TH12-7] | 2.99 ± 0.16 | 2.97 ± 0.08 | 4.59 ± 1.27 | -2.71 ± 0.83 | 87.1 ± 2.37 | – | – | – | – | – | – | – | – | –
1.05 ± 0.23 | 0.97 ± 0.1 | 1 ± 0.13 | COC1C2CC3C(C)(C)OC(CC=C(C)C(=O)N4CCC(N5CCCC5)CC4)(C2=O)C32Oc3c(CC=C(C)C)c4c(c(O)c3C(=O)C12)C=CC(C)(C)O4 (stereo not drawn) [TH12-8] | 4.32 ± 1.96 | 2.29 ± 0.01 | 4.8 ± 0.63 | 4.04 ± 1.5 | 87.6 ± 2.76 | – | – | – | – | – | – | – | – | –
1.67 ± 0.7 | 1.59 ± 0.44 | 1.68 ± 0.26 | CONC(=O)C(C)=CCC12OC(C)(C)C3CC(C1=O)C(OC)C1C(=O)c4c(O)c5c(c(CC=C(C)C)c4OC132)OC(C)(C)C=C5 (stereo not drawn) [TH12-9] | -1.76 ± 0.43 | 1.63 ± 0.02 | 8.54 ± 1.11 | 4.49 ± 1.05 | 83.9 ± 2.07 | – | – | – | – | – | – | – | – | –
1.1 ± 0.19 | 0.79 ± 0.12 | 0.83 ± 0.1 | COC1C2CC3C(C)(C)OC(CC=C(C)C(=O)N4CCS(=O)(=O)CC4)(C2=O)C32Oc3c(CC=C(C)C)c4c(c(O)c3C(=O)C12)C=CC(C)(C)O4 (stereo not drawn) [TH12-10] | 8.09 ± 0.28 | 4.08 ± 0.11 | 6.85 ± 2.16 | 3.65 ± 2.44 | 88.1 ± 2.78 | – | – | – | – | – | significantly higher | significantly decreased | no significant change | significantly decreased
